Results taken from patent publication US20200024662A1, “METHODS FOR TREATING OPIOID ADDICTION” (ASSUREX HEALTH, INC., priority 2016, published 2020).

Columns and labels:
Format in all cases: in vivo, human
[1] = system: patients treated with Methadone in the START trial; assay: PD Model 1 binning vs Methadone completion
Procedure: (§1) For the model analyses, models were developed that sort patients into one of three categories, Green (‘G’) Yellow (‘Y’) or Red (‘R’). Patients determined to be high risk for non-completion by the model are placed into the Red Bin. Patients at intermediate risk of non-completion are placed in the Yellow Bin, and for this study, Yellow Bin patients are treated the same as patients found to be at Low Risk of non-completion, or those who are placed in the Green Bin. Thus, the Green and Yellow bins are combined for analysis.
PD Model 1: The completion percentage was calculated for each genotype. For each gene and genotype completion percentage, the means and standard deviations were calculated. For each genotype that was greater than or equal to one standard deviation away from the mean, towards higher completion, a score of 1 was given. For each genotype that was greater than or equal to one standard deviation away from the mean, towards lower completion, a score of −1 was given. All others received a score of 0. The patient's PD risk was calculated by summing the total genotype risk score. The individual risk scores were combined to create the SumRisk variable; a final score of −1 was converted to Green, a score of 0 was converted to Yellow, and a score of 1 was converted to Red. […] A listing of tested alleles, and score assignments for PD Model 1 can be found in Table 16.
(§2) Samples from patients treated with Methadone in the START trial described in Example 1 above were used (N=352). […] Each model was tested as described below against Sample 1, Sample 2 and/or the Full Sample.
(§3) Pearson's product moment, Chi-square with Yates correction were calculated. Diagnostic tests, odds ratios, Pearson's product moment, Chi-square with Yates correction were calculated using MEDCALC and R version 3.3.1.

[2] = system: patients treated with Methadone in the START trial; assay: PK/PD Model 1 binning vs Methadone completion
Procedure: as §1
Three separate PK/PD Models were generated by combining the PK model with each of the three PD models separately as follows. For each PKPD model, the corresponding PD risk score was added to the raw PK score (bin). A total PD risk score that was negative, represents a reduction of the baseline PK score, while a total PD risk score that was positive represented an increase in the baseline PK score.
as §2, §3
For PK/PD Model 1, final score was the sum of the PD 1 score and the PK score, where PK green=1, PK Yellow=2 and PK red=3. Bins were assigned according to Table 61.

[3] = system: patients treated with Methadone in the START trial; assay: PK model (predicted exposure) binning vs Methadone completion
Procedure: as §1
The PK model represents a physiologically based pharmacokinetic algorithm that combines combinatorial pharmacogenetics with a physiological algorithm for predicting medication exposure, as described elsewhere herein. Model assignments to G Y or R were based on the therapeutic ranges provided by the literature for methadone as shown in Table 15.
as §2, §3

[4] = PD Model 1, Full Sample, COMT Low Risk, SLC6A4 High Risk (Yellow)
[5] = PD Model 1, Full Sample, COMT Low Risk, SLC6A4 Normal Risk (Green)
[6] = PD Model 1, Full Sample, COMT Normal Risk, SLC6A4 High Risk (Red)
[7] = PD Model 1, Full Sample, COMT Normal Risk, SLC6A4 Normal Risk (Yellow)
[8] = PD Model 1, Full Sample, Green bin
[9] = PD Model 1, Full Sample, Red bin
[10] = PD Model 1, Full Sample, Yellow bin
[11] = PD Model 1, Sample 1, COMT Low Risk, SLC6A4 High Risk (Yellow)
[12] = PD Model 1, Sample 1, COMT Low Risk, SLC6A4 Normal Risk (Green)
[13] = PD Model 1, Sample 1, COMT Normal Risk, SLC6A4 High Risk (Red)
[14] = PD Model 1, Sample 1, COMT Normal Risk, SLC6A4 Normal Risk (Yellow)
[15] = PD Model 1, Sample 1, Green bin
[16] = PD Model 1, Sample 1, Yellow bin
[17] = PD Model 1, Sample 2, COMT Low Risk, SLC6A4 High Risk (Yellow)
[18] = PD Model 1, Sample 2, COMT Low Risk, SLC6A4 Normal Risk (Green)
[19] = PD Model 1, Sample 2, COMT Normal Risk, SLC6A4 High Risk (Red)
[20] = PD Model 1, Sample 2, COMT Normal Risk, SLC6A4 Normal Risk (Yellow)
[21] = PD Model 1, Sample 2, Green bin
[22] = PD Model 1, Sample 2, Yellow bin
[23] = PK/PD Model 1, Full Sample, Green bin
[24] = PK/PD Model 1, Full Sample, Red bin
[25] = PK/PD Model 1, Full Sample, Yellow bin
[26] = PK/PD Model 1, Sample 1, Green bin
[27] = PK/PD Model 1, Sample 1, Red bin
[28] = PK/PD Model 1, Sample 1, Yellow bin
[29] = PK/PD Model 1, Sample 2, Green bin
[30] = PK/PD Model 1, Sample 2, Red bin
[31] = PK/PD Model 1, Sample 2, Yellow bin

## CCC(=O)C(CC(C)N(C)C)(c1ccccc1)c1ccccc1 (stereo not drawn) [Methadone, methadone]
[1]; [4]
  Completers: 13
  Non Completers: 1
[1]; [5]
  Completers: 62
  Non Completers: 4
[1]; [6]
  Completers: 39
  Non Completers: 13
[1]; [7]
  Completers: 193
  Non Completers: 27
[1]; [8]
  Completers: 62
  Non Completers: 4
[1]; PD Model 1, Full Sample, LR/HR vs. NR/NR
  Odds Ratio for non-completion: 0.5499
[1]; PD Model 1, Full Sample, LR/NR vs. NR/HR
  Odds Ratio for non-completion: 0.1935
[1]; PD Model 1, Full Sample, LR/NR vs. NR/NR
  Odds Ratio for non-completion: 0.4612
[1]; PD Model 1, Full Sample, NR/HR vs. NR/NR
  Odds Ratio for non-completion: 2.3827
[1]; [9]
  Completers: 39
  Non Completers: 13
[1]; [10]
  Completers: 206
  Non Completers: 28
[1]; [11]
  Completers: 8
  Non Completers: 0
[1]; [12]
  Completers: 34
  Non Completers: 1
[1]; [13]
  Completers: 20
  Non Completers: 7
[1]; [14]
  Completers: 94
  Non Completers: 12
[1]; [15]
  Completers: 34
  Non Completers: 1
[1]; PD Model 1, Sample 1, LR/HR vs. NR/NR
  Odds Ratio for non-completion: 0.4447
[1]; PD Model 1, Sample 1, LR/NR vs. NR/HR
  Odds Ratio for non-completion: 0.0840
[1]; PD Model 1, Sample 1, LR/NR vs. NR/NR
  Odds Ratio for non-completion: 0.2304
[1]; PD Model 1, Sample 1, NR/HR vs. NR/NR
  Odds Ratio for non-completion: 2.7417
[1]; PD Model 1, Sample 1, Red bin
  Completers: 20
  Non Completers: 7
[1]; [16]
  Completers: 102
  Non Completers: 12
[1]; [17]
  Completers: 7
  Non Completers: 0
[1]; [18]
  Completers: 39
  Non Completers: 2
[1]; [19]
  Completers: 21
  Non Completers: 6
[1]; [20]
  Completers: 92
  Non Completers: 9
[1]; [21]
  Completers: 39
  Non Completers: 2
[1]; PD Model 1, Sample 2, LR/HR vs. NR/NR
  Odds Ratio for non-completion: 0.6491
[1]; PD Model 1, Sample 2, LR/NR vs. NR/HR
  Odds Ratio for non-completion: 0.1795
[1]; PD Model 1, Sample 2, LR/NR vs. NR/NR
  Odds Ratio for non-completion: 0.5242
[1]; PD Model 1, Sample 2, NR/HR vs. NR/NR
  Odds Ratio for non-completion: 2.9206
[1]; PD Model 1, Sample 2, Red bin
  Completers: 21
  Non Completers: 6
[1]; [22]
  Completers: 99
  Non Completers: 9
[2]; [23]
  Completers: 262
  Non Completers: 23
[2]; [24]
  Completers: 2
  Non Completers: 6
[2]; [25]
  Completers: 43
  Non Completers: 16
[2]; [26]
  Completers: 137
  Non Completers: 11
[2]; [27]
  Completers: 2
  Non Completers: 3
[2]; [28]
  Completers: 17
  Non Completers: 6
[2]; [29]
  Completers: 134
  Non Completers: 10
[2]; [30]
  Completers: 0
  Non Completers: 2
[2]; [31]
  Completers: 25
  Non Completers: 5
[3]; Full Sample, Green bin
  Completers: 181
  Non Completers: 11
[3]; Full Sample, Red bin
  Completers: 33
  Non Completers: 22
[3]; Full Sample, Yellow bin
  Completers: 93
  Non Completers: 12
[3]; Sample 1, Green bin
  Completers: 91
  Non Completers: 6
[3]; Sample 1, Red bin
  Completers: 12
  Non Completers: 8
[3]; Sample 1, Yellow bin
  Completers: 53
  Non Completers: 6
[3]; Sample 2, Green bin
  Completers: 94
  Non Completers: 7
[3]; Sample 2, Red bin
  Completers: 13
  Non Completers: 6
[3]; Sample 2, Yellow bin
  Completers: 52
  Non Completers: 4
